PMC7041945, “Misfolded proteins bind and activate death receptor 5 to trigger apoptosis during unresolved endoplasmic reticulum stress” (eLife, 2020)
Residues, ends and D or L forms follow the SMILES beside them. *: point of attachment. Cbz = O=C(OCc1ccccc1)*; CH2F = FC*

Experiments:
DR5 ECD = experiment: Peptide array binding of Fc-tagged DR5 ectodomain (MPZ and RHO sequences; amino acid enrichment); parameters: species or system human; conditions: rhodopsin EL1-EL3 peptide array; for Corrected rawintden - min: min subtracted; for normalized (binding intensity): normalized from corrected rawintden - min
Procedure: Peptide arrays were purchased from the MIT Biopolymers Laboratory as described previously in [Karagöz et al. (2017)] and [Gardner and Walter (2011)]. The sequences of each protein were tiled from N- to C-terminus in 18-amino-acid-long peptides shifting by three amino acids from the previous spot. The arrays were incubated in methanol for 10 min, and then washed in binding buffer (50 mM HEPES pH 7.2, 250 mM NaCl, 10% glycerol) for 10 min at room temperature x 3. 500 nM of Fc-tagged DR5 extracellular domain (ECD, a kind gift from Scot Marsters) was incubated with the array in binding buffer at room temperature for 1 hr. Then, the array was washed three times for 10 min with binding buffer to remove unbound protein. The bound DR5 ECD was then transferred onto a nitrocellulose membrane via a semi-dry transfer apparatus (Owl HEP-1) at 80 mA for 45 min at 4°C. The membrane was then blocked with 1xPBST with 5% milk for 1 hr at room temperature and probed with 1:1000 anti-Fc (One World Lab #603–510) overnight at 4°C followed by 1:10000 anti-mouse IgG-HRP (Promega #W4021) for 1 hr at RT. The membrane was imaged using chemi-luminescence with the Bio-Rad Universal Hood II Gel Doc below saturating pixel intensities. The signal of each spot was quantified using Max Quant and normalized to the maximum intensity of all the spots on the same array.

[1] = tested on: DR5 / ERGIC53 / giantin in HCT116 cells; experiment: Immunofluorescence co-localization (Pearson's correlation per cell); format: cell-based, Homo sapiens; conditions: for Pearson's correlation per cell of GFP-tagged peptide with DR5 / Pearson's correlation per cell of GFP-tagged peptide with ERGIC: HCT116, 24 hr post-transfection; for Pearson's correlation per cell of GFP-tagged peptide with DR5 / Pearson's correlation per cell of GFP-tagged peptide with ERGIC / Pearson's correlation per cell between DR5 and ERGIC: Mean ± SEM; for Pearson's correlation per cell between DR5 and ERGIC: HCT116 expressing GFP-tagged peptide, 24 hr
Procedure: HCT116 were seeded at 25000 cells per well in an 8-well glass-bottom μSlide (Ibidi 80827) pre-coated with Collagen IV (Sigma-Aldrich C6745, 0.03 mg/ml in PBS incubated for 30 min at RT, and then rinsed off with PBS x 3) in growth media 18 hr prior to transfection (see above for protocol). 24 hr post-transfection, the cells were fixed using 4% paraformaldehyde (PFA, Electron Microscopy Sciences) or methanol, depending on the antibody combination used for immunostaining (see table below). Samples were protected from light after fixation to preserve GFP fluorescence.
For fixation with 4% PFA, 32% PFA was added directly to the well in growth media for a 1:8 dilution and incubated for 10–15 min at RT. Cells were then permeabilized with PHEM buffer (60 mM PIPES, 25 mM HEPES, 10 mM EGTA, 2 mM MgCl2-hexahydrate, pH 6.9) containing 0.1% Triton-X100 for 10 min at RT for three washes.
For fixation with methanol, media was removed and cells were washed with cold PBS. Then methanol (pre-cooled at −20°C) was added to the well and incubated at −20°C for 3–4 min. The methanol was promptly aspirated and replaced with PHEM buffer (without Triton X-100), followed by two more 10 min washes with PHEM at RT.
To block against non-specific antibody interactions, cells were rinsed in PHEM (without 0.1% Triton X-100) and then incubated with PHEM containing 2% normal goat serum (Jackson Immunoresearch Laboratories, 005-000-121) for 1 hr at RT. Primary antibodies were incubated in blocking solution overnight at 4°C at the dilution noted in the table above. Cells were then washed with PHEM buffer for 10 min at RT x three and incubated with secondary antibodies, anti-mouse-AlexaFluor546 (Invitrogen A11030) and anti-rabbit-AlexaFluor633 (Invitrogen A21071), diluted 1:1000 in PHEM with 2% normal goat serum. (Secondary antibody solutions were centrifuged at 15000xg for 20 mins at 4°C to remove aggregates prior to incubating with cell samples.) After a 1 hr incubation at RT, cells were washed with PHEM buffer once, then incubated with PHEM buffer containing nuclear stain (DAPI, Molecular Probes, Eugene, OR, D-1306, 5 μg/mL), and finally rinsed with PHEM buffer twice before imaging.
Samples were imaged on a spinning disk confocal with Yokogawa CSUX A1 scan head, Andor iXon EMCCD camera, and 40x Plan Apo air Objective NA 0.95 or 100x ApoTIRF objective NA 1.49 (Nikon).
From the 405 nm channel, cell nuclei were identified as primary objects using maximum correlation thresholding (MCT) and shape to distinguish clumped objects. Secondary objects were outlined using propagation from the nuclei (DAPI) after applying MCT from the 488 nm, 561 nm, and 633 nm channels. Tertiary objects for each cell was identified as the mask of each nucleus subtracted from the mask of its corresponding secondary object in each channel, yielding masks for intracellular GFP-tagged protein from the 488 nm channel, for intracellular DR5 from the 561 nm channel, and for the organelle marker in the 633 nm channel. For overlap between DR5 and MPZ/RHO-GFP, Pearson’s correlation coefficients were calculated within the MPZ/RHO mask for each cell to filter out untransfected cells. For overlap between DR5/MPZ and organelle markers, Pearson’s correlation coefficients were calculated within tertiary objects for the organelle marker in GFP+ cells. Statistical analyses for all data sets were performed using GraphPad Prism 6.0.

HCT116 cells = experiment: Annexin V (and SytoxBlue) flow cytometry for apoptosis; format: cell-based, Homo sapiens; conditions: for Annexin V +, Sytox Blue + cells / Annexin V +, Sytox Blue - cells / Annexin V -, Sytox Blue - cells: transfected 24 hr, no z-VAD
Procedure: Cells seeded in a 6-well plate were transfected with the specified plasmid for 24 hr and harvested via trypsinization in complete media to allow a 30 min recovery at 37°C. The samples were then centrifuged at 500xg for 5 min and resuspended In 150 μl of a 1:20 dilution of Annexin V-AlexaFluor 647 conjugate (Thermo Scientific #A23204). Samples were transferred to a 96-well U-bottom plate and incubated in the dark for 15 min at RT. The distribution of apoptotic cells was determined by flow cytometry on a BD LSR II.

[2] = tested on: caspase 8 in HCT116 lysates; experiment: Caspase 8 activity (caspase glo 8) of cell lysates / IP inputs; format: cell-based, Homo sapiens; conditions: for average fold change relative to empty: HCT116, rep 1, average of 4 dilutions; for norm RLUs: rep 2, normalized by lysate quant
Procedure: Cells harvested from a 6-well plate were resuspended in 100 μl of lysis buffer (30 mM HEPES pH 7.2, 150 mM NaCl, 1% Triton X-100) and lysed via needle shearing (25G, 10 passes) followed by a 30 min incubation on ice. Supernatant was collected after centrifuging at 1000xg for 5 min. For the caspase activity assay, 10 μl of supernatant diluted with lysis buffer (1:25, 1:50, 1:100 to stay within linear range of luminescence measurements) was incubated with 10 μl of the luminogenic caspase glo 8 substrate (Promega #PRG8200) in a 384-white walled plate (Corning 3574) for 45 min at RT before measuring luminescence on a Spectramax-M5 plate reader.

Row | Corrected rawintden - min (DR5 ECD) | normalized (binding intensity) (DR5 ECD) | Molecule | also measured
1 | 624655 | 0.1523 | PNFYVPFSNVTGVVRSPF | –
2 | 941789 | 0.2296 | KPEVNNESTHQGSNFMNG | –
3 | 470277 | 0.1147 | FSNVTGVVRSPFEQPQYY | –
4 | 1142815 | 0.2786 | LHGYFVFGPTGCNLERYI | –
5 | 996384 | 0.2429 | QYYLAEPWQLHGYFVFGP | –
6 | 890759 | 0.2172 | LAEPWQLHGYFVFGPTGC | –
7 | 640840 | 0.1562 | YVPFSNVTGVVRSPFEQP | –
8 | 870062 | 0.2121 | YTLKPEVNNESTHQGSNF | –
9 | – | – | DR5 siRNA: siRNA oligonucleotides against DR5 (Dharmacon L-004448-00-0005) (guide AAGACCCUUGUGCUCGUUGUCUU; further chemistry not given here) [reference compound] | DR5 immunofluorescence signal ([1]; siRNA 48 hr, MPZ-GFP 24 hr): eliminated the DR5 signal; PARP cleavage and annexin V staining after DR5 knockdown (HCT116 cells; DR5 siRNA 48 hr, then MPZ-GFP overexpression 24 hr): significantly reduced PARP cleavage and annexin V staining
10 | 294091 | 0.0717 | VNNESTHQGSNFMNGTEG | –
11 | 827091 | 0.2016 | MNGTEGPNFYVPFSNVTG | –
12 | 395368 | 0.09639 | NLERYIPEGMQCSCGIDY | –
13 | 320074 | 0.07803 | ESTHQGSNFMNGTEGPNF | –
14 | – | – | CC(NC(=O)C(NC(=O)OCc1ccccc1)C(C)C)C(=O)NC(CC(=O)O)C(=O)CF (stereo not drawn) [zVAD, reference compound] (Cbz-Val-Ala-Asp-CH2F; configuration not given here) | annexin V staining with pan-caspase inhibitor (HCT116 cells; cells expressing MPZ-ecto peptide): diminished the extent of annexin V staining
15 | 517083 | 0.1261 | SPFEQPQYYLAEPWQLHG | –
16 | – | – | INS1 | average fold change relative to empty ([2]; siDR5): 1.524 fold change; average fold change relative to empty ([2]; siNT): 2.0013 fold change
17 | 1340468 | 0.3268 | RYIPEGMQCSCGIDYYTL | –

Row | Corrected rawintden - min (DR5 ECD) | normalized (binding intensity) (DR5 ECD) | Molecule | also measured
18 | 507200 | 0.1237 | EQPQYYLAEPWQLHGYFV | –
19 | – | – | insGFP | norm RLUs ([2]; dilution 0.025): 1827.1 RLUs; norm RLUs ([2]; dilution 0.05): 3654.19 RLUs; norm RLUs ([2]; dilution 0.1): 8264.86 RLUs
20 | 1149984 | 0.2804 | TGCNLERYIPEGMQCSCG | –
21 | 1701232 | 0.4148 | MQCSCGIDYYTLKPEVNN | –
22 | – | – | FTWREQPEGGRDAISIFHEA [MPZ-ecto peptide^Tyr→Glu-eGFP, expressed GFP-tagged construct with Tyr → Glu mutations in the MPZ-ecto peptide] | Pearson's correlation per cell of GFP-tagged peptide with DR5 [1]: 0.15 ± 0.03; Pearson's correlation per cell of GFP-tagged peptide with ERGIC [1]: 0.22 ± 0.05; Pearson's correlation per cell between DR5 and ERGIC [1]: 0.44 ± 0.04; Annexin V +, Sytox Blue + cells (HCT116 cells): 5.66% of cells; Annexin V +, Sytox Blue - cells (HCT116 cells): 3.64% of cells; Annexin V -, Sytox Blue - cells (HCT116 cells): 90.3% of cells
23 | 1182345 | 0.2883 | TEGPNFYVPFSNVTGVVR | –
24 | 1420533 | 0.3463 | IDYYTLKPEVNNESTHQG | –
25 | 375649 | 0.09158 | VVRSPFEQPQYYLAEPWQ | –
26 | 1488599 | 0.3629 | SCGIDYYTLKPEVNNEST | –
27 | 337810 | 0.08236 | SNFMNGTEGPNFYVPFSN | –
28 | 402567 | 0.09815 | VTGVVRSPFEQPQYYLAE | –
29 | 360135 | 0.0878 | HQGSNFMNGTEGPNFYVP | –
30 | – | – | ETEREQPEGGRDAISIEHEA [MPZ-ecto peptide^Arom→Glu-eGFP, expressed GFP-tagged construct with all aromatic residues of the MPZ-ecto peptide mutated to Glu] | Pearson's correlation per cell of GFP-tagged peptide with DR5 [1]: 0.27 ± 0.03; Pearson's correlation per cell of GFP-tagged peptide with ERGIC [1]: 0.25 ± 0.03; Pearson's correlation per cell between DR5 and ERGIC [1]: 0.50 ± 0.03; Annexin V +, Sytox Blue + cells (HCT116 cells): 8.17% of cells; Annexin V +, Sytox Blue - cells (HCT116 cells): 4.89% of cells; Annexin V -, Sytox Blue - cells (HCT116 cells): 86.5% of cells
31 | 1562181 | 0.3809 | FGPTGCNLERYIPEGMQC | –
32 | 1657676 | 0.4041 | PEGMQCSCGIDYYTLKPE | –
33 | 1093768 | 0.2667 | PWQLHGYFVFGPTGCNLE | –

Row | Molecule | Corrected rawintden - min (DR5 ECD) | normalized (binding intensity) (DR5 ECD) | also measured
34 | YFVFGPTGCNLERYIPEG | 490636 | 0.1196 | –
